Experimental data: US20230241226A1, “COMPOUNDS FOR TARGETED DEGRADATION OF CARRIER PROTEINS AND USES THEREOF” (CeMM - Forschungszentrum für Molekulare Medizin GmbH, priority 2019, published 2023)

Assays:
dTAG-HA SLC38A2 = molecular target: T1, dTAG-HA SLC38A2 (Homo sapiens, UniProt Q96QD8+Q96SW2); assay: Targeted degradation of dTAG-tagged SLC38A2 (western blot); assay type: cell-based; settings: HAP1, 0.5 µM; for time to degradation of the glycosylated form (upper band) of dTAG-HA SLC38A2: time course
T1 construct: expressed in transfected cells
T1 sequence (Q96QD8 with tags, fused parts or gaps): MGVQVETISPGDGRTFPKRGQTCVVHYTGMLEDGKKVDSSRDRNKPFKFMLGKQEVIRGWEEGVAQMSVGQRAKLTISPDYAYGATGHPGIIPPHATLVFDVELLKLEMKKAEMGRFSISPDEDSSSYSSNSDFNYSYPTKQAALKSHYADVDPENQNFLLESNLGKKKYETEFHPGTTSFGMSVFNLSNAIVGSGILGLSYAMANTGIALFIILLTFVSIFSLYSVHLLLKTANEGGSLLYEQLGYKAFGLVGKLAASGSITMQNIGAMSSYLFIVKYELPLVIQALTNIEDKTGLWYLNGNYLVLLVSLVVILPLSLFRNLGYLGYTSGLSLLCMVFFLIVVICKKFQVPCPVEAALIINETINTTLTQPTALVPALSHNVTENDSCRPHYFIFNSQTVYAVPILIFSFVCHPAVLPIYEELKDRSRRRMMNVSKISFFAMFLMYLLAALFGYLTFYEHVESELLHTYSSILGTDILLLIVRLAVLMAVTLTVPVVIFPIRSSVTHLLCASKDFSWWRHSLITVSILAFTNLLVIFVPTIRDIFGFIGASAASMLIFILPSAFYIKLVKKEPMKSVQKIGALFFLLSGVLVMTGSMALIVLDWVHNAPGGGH
T1 sequence (Q96SW2 whole entry): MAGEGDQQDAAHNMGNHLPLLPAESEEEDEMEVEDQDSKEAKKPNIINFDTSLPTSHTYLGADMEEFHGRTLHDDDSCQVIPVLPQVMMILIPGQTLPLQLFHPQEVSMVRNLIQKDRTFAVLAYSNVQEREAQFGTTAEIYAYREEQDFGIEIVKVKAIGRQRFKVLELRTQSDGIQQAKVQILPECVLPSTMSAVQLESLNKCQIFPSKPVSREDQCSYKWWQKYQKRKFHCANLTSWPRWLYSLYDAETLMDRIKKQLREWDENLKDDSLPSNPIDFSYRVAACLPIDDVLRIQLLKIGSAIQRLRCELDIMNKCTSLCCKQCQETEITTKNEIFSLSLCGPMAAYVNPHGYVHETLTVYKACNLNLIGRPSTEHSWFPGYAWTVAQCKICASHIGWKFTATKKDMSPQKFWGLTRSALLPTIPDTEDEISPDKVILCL
T1 sequence (Q16531 whole entry partner): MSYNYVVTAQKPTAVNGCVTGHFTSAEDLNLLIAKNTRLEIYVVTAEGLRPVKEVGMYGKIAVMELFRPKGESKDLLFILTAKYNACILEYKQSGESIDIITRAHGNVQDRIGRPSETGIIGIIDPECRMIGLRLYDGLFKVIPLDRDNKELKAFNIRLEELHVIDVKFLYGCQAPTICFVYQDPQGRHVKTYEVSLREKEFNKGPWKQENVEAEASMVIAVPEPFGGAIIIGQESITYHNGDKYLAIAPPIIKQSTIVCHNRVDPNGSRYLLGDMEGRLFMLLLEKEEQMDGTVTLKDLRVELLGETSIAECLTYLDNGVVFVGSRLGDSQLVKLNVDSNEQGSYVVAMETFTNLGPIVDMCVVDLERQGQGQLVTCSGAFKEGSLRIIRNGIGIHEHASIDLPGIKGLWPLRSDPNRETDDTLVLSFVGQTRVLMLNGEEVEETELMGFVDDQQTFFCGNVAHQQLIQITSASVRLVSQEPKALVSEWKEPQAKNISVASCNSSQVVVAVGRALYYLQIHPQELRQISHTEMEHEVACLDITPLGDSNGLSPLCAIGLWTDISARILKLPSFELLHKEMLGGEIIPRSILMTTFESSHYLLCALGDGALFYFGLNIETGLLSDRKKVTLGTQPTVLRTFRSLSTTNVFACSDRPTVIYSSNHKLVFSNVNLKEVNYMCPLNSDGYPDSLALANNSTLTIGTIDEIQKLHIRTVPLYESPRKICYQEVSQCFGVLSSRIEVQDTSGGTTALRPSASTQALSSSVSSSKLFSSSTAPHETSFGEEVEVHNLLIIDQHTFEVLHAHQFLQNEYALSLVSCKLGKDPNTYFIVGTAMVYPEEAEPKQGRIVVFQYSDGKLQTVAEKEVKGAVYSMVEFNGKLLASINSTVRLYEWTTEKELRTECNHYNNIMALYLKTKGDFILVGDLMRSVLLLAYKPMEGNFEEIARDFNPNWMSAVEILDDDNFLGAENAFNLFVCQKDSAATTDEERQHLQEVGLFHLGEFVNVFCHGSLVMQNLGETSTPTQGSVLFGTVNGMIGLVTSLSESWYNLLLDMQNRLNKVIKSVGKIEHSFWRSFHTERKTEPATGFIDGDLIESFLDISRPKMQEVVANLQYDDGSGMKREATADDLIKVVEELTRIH
Description: (A) HAP1 cells expressing dTAG-HA SLC38A9, 38A2, or 38A1 were treated with 0.5 µM dTAG13 for 16, 24 or 48 hours.
SLC1A5, SLC2A1, SLC2A3, SLC16A1, SLC38A1, SLC38A2 were obtained as gateway-compatible pENTR/pDONR vectors from the Harvard PlasmID Repository. SLC39A7 was obtained from Dharmacon, GE Healthcare. The following vectors were synthesized by Genescript: SLC4A4, SLC7A3, SLC38A9, SLC25A1, SLC9A1, SLC9A2, SLC9A3, SLC9A4, SLC9A5, SLC9A6, SLC9A7, SLC9A8, and SLC9B2. SLC30A9, SLC33A1, SLC35B2, SLC25A26, and MTCH2 were a gift from the RESOLUTE consortium. cDNAs were transferred into gateway-compatible lentiviral expression vectors: pLX305 dTAG vectors (Addgene #91797/8) or pRRL Strep-HA (described previously43, EF1a promotor driven expression) using LR recombination (ThermoFisher Scientific). For the generation of lentiviral stable overexpression cells, HEK293T cells were transfected with psPAX2 (Addgene #12260) and pMD2.G (Addgene #12259) and expression vectors using polyethylenimine (PEI). 12 hours post transfection medium was replaced with fresh medium. The medium, containing the virus, was harvested 48 hours later, filtered (0.45 µm), supplemented with 5 µg/ml Polybrene (Hexadimethrine bromide, Sigma) and added to target cells. […]
For immunoblotting, whole cell extracts were prepared using RIPA lysis buffer (25 mM Tris/HCl pH 7.6, 150 mM NaCl, 1% NP-40, 1% sodium deoxycholate, 0.1% SDS, EDTA-free protease inhibitor (Roche) and phosphatase inhibitors 2+3 (Sigma- Aldrich)). […] Protein extracts were quantified and normalized using the BCA assay (Thermo Scientific). […]
SLCs were ectopically expressed as fusions to a mutated FKBP domain, also known as the dTAG system. […] Each of the tested SLCs was stably expressed in HAP1 cells, and subcellular localization was assessed by immunofluorescence microscopy (FIG. 1B). […]

dTAG-HA SLCs = assay: dTAG-driven SLC degradation, statements across SLCs (temporal control, chemical rescue); assay type: cell-based, human; settings: dTAG-tagged SLCs; FIGS. 5E and F
Description: (D)Chemical “rescue” of dTAG-driven degradation of SLCs. HAP1 cell lines expressing dTAG-HA SLC1A5 or dTAG-HA SLC38A9 were treated with 0.5 µM dTAG7 for 12 or 18 hours, respectively. These cells were also treated with chloroquine (CQ, 50 µM), bortezomib (bort., 1 µM), MG-132 (MG, 1 µM), MLN4924 (MLN, 1 µM), pomalidomide (poma., 10 µM), or bafilomycin A1 (bafi., 2.5 µM). SLC degradation was rescued by inhibiting CRL activity or the proteasome, but not by inhibiting the lysosome machinery.
Western blotting with antibodies against the HA-tag and the total protein mirrored the observed pattern.
(D) Chemical “rescue” of dTAG driven degradation. HAP1 cell lines expressing dTAGHA SLC2A3, 39A7, […], and MTCH2 were treated with 0.5 µM dTAG7 for 12 hours. A cell line expressing dTAG-HA SLC38A2 was treated with 0.5 µM dTAG7 for 18 hours. These cells were treated with MLN4924 (MLN, 1 µM), pomalidomide (poma., 10 µM), or bafilomycin A1 (bafi., 2.5 µM) to monitor the inhibition of degradation.
For immunoblotting, whole cell extracts were prepared using RIPA lysis buffer (25 mM Tris/HCl pH 7.6, 150 mM NaCl, 1% NP-40, 1% sodium deoxycholate, 0.1% SDS, EDTA-free protease inhibitor (Roche) and phosphatase inhibitors 2+3 (Sigma- Aldrich)). Cell extracts were incubated for 15 min on ice in 50 µL RIPA buffer. Lysates were cleared by centrifugation (20,000 g, 10 min, 4° C.). Protein extracts were quantified and normalized using the BCA assay (Thermo Scientific). Where indicated, cleared lysates where treated with the enzyme PNGase (NEB) to deglycosylate the proteins. Lämmli Sample Buffer 4x was added to protein extract samples without boiling. Cell lysates were run on SDS-polyacrylamide gel in tris-glycine running buffer and transferred to nitrocellulose membranes Amersham Protran 0.45 µm (GE Healthcare), according to standard methods. The membranes were incubated with the antibodies indicated below and visualized with horseradish peroxidase-conjugated secondary antibodies (described below) using the ECL Western blotting system (Thermo Scientific). The following antibodies were used: GAPDH (Santa Cruz, sc-365062), Actin (Cyoskeleton Inc., #AAN01), HA (Covance, cat #MMS-101R), HA (Cell Signaling, #3724), HA7-HRP (Sigma, H6533), HA (Roche, #11867423001), SLC9A1 (Santa Cruz, sc-136239), SLC2A1 (Cell Signaling, #12939), SLC38A1 (Cell Signaling, #36057). Secondary antibody for imaging goat anti-Rat IgG Alexa Fluor 488 (ThermoFisher, A11006). The following secondary antibodies were used for immunoblotting: goat anti-mouse HRP (115-035-003, Jackson ImmunoResearch) and goat anti-rabbit HRP (111-035-003, Jackson ImmunoResearch).
SLCs were ectopically expressed as fusions to a mutated FKBP domain, also known as the dTAG system. In brief, a dTAGed protein is amenable to degradation by specific chimeric degrader molecules (e.g. dTAG7/dTAG13) that simultaneously bind to the dTAG and the CRL4CRBN E3 ligase, inducing molecular proximity and ensuing degradation by the proteasome. Given that SLCs were expressed in all cellular compartments, the amenability of differentially located SLCs to targeted proteolysis was tested (FIG. 1A, upper graph). Each of the tested SLCs was stably expressed in HAP1 cells, and subcellular localization was assessed by immunofluorescence microscopy (FIG. 1B). In detail, SLCs located at the cell surface (SLC1A5, SLC38A1, SLC2A1, SLC2A3, SLC16A1, SLC4A4, SLC7A3), cell surface and vesicles (SLC38A2), lysosome (SLC38A9), Golgi (SLC35B2, SLC33A1), mitochondria (SLC25A26, SLC25A1, and MTCH2) and endoplasmic reticulum (SLC39A7, SLC30A9) were assayed. Cellular treatment with a specific degrader molecule (dTAG7 or dTAG13) led to identification of SLCs expressed at cell surface, endoplasmic reticulum and lysosome that were amenable to targeted degradation (FIGS. 1C, 5A). The dTAG could be placed on either N- or C-terminus of the SLC, if both face the cytoplasm (FIG. 5B), as exemplified by SLC2A3. […]

Structure (SMILES) | time to degradation of the glycosylated form (upper band) of dTAG-HA SLC38A2 (dTAG-HA SLC38A2) | temporal control of targeted SLC degradation (dTAG-HA SLCs) | degradation of the target SLC (dTAG-HA SLC38A2; dTAG-HA SLC38A2, 16, 24 or 48 hours) | time for which target degradation is maintained (dTAG-HA SLCs)
CC[C@H](C(=O)N1CCCC[C@H]1C(=O)O[C@H](CCc1ccc(OC)c(OC)c1)c1ccccc1OCC(=O)NCCCOCCOCCOCCCNC(=O)COc1cccc2c1C(=O)N(C1CCC(=O)NC1=O)C2=O)c1cc(OC)c(OC)c(OC)c1 (some centres unmarked) [dTAG7] | within five hours | reversible degradation | – | –
CC[C@H](C(=O)N1CCCC[C@H]1C(=O)O[C@H](CCc1ccc(OC)c(OC)c1)c1ccccc1OCC(=O)NCCCCCCOc1cccc2c1C(=O)N(C1CCC(=O)NC1=O)C2=O)c1cc(OC)c(OC)c(OC)c1 (some centres unmarked) [dTAG13] | within five hours | – | Near-complete degradation | at least 72 h
